Experiment: Inhibition of Helicobacter pylori VirB11 HP0525 ATPase expressed in Escherichia coli assessed as reduction in inorganic phosphate release by colorimetric ATPase assay

Row | IC50 [µM] | Compound
1 | 77 | Cc1ccc(S(=O)(=O)Nc2nccn3c(-c4ccc5ccccc5c4)cnc23)cc1
2 | 6 | Cc1ccc(S(=O)(=O)Nc2ccc(Nc3nc(Br)cn4cc(-c5ccc6ccccc6c5)nc34)cc2)cc1
3 | 77 | Cc1ccc(S(=O)(=O)NCCNc2nc(Br)cn3cc(-c4ccc5ccccc5c4)nc23)cc1

Source: ChEMBL document CHEMBL3351872, “2- and 3-substituted imidazo[1,2-a]pyrazines as inhibitors of bacterial type IV secretion” (Bioorg Med Chem, 2014)
